Assay results from patent US10723726B2, “Solid forms of (Z)-4-(5-((3-benzyl-4-oxo-2-thioxothiazolidin-5-ylidene)methyl)furan-2-yl)benzoic acid” (GB006, INC., priority 2015, dated 2020).
Counter-ions that a name gives are not always drawn. Like-named read-outs stand apart in the source and are kept apart here.

How the values were obtained:
[1] = system: murine melanoma B16-F10 tumors; experiment: Murine melanoma B16F10 allograft efficacy (Example 20); assay type: in vivo, C57BL/6 mice
[2] = in vivo
Procedure: (§1) In a second experiment, the dose solution was prepared in Tween-80 (0.02%) and 0.5% methyl cellulose in Milli-Q water. IP (2 mg/kg) and IV (1 mg/kg) dose solutions were prepared in a 5% DMSO and 95% PEG-200.
(§2) The PO (2 mg/kg) dose solution was prepared in Tween-80 (0.02%) and 0.5% methyl cellulose in Milli-Q water. The IV (1 mg/kg) dose solution was prepared in a solution of 5% DMSO and 95% PEG-200.
(§3) The routes of administration were namely PO (gavage), IP (bolus) and IV (bolus through tail vein). A total of four SD male rats were used aged between 5-6 weeks. The feeding regimen included 12 h fasting and the feed was provided 2 hrs after the dosage inoculation and water was provided ad libidum. The blood collection schedule for PO/IP was at 0.25, 0.5, 1, 2, 4, 8, 10 and 24 h, and for IV it was at 0.12, 0.25, 0.5, 1, 2, 4, 8 and 24 h. For PO dosage, tween-80 (0.02%) and 0.5% methyl cellulose prepared in milli-Q water were used as vehicles; for IP and IV dosage 5% DMSO and 95% PEG-200 were used as vehicles.
(§4) Stock solution (178 μg/mL) in methanol was further diluted using methanol: water (80:20, v/v) to obtain working solutions in the range of 10.4 to 20745 ng/mL.
(§5) 50 μL of sample was aliquoted in to pre-labeled vials. To it was added 200 μL of 10% tetrahydrofuran containing IS (100 ng/mL; tolbutamide) and mixed well, vortexed for 5 min followed by centrifugation for 5 min at 14000 rpm for at 4° C. Supernatant was separated and 5 μL of same was injected on LC-MS/MS.
(§6) Data Analysis: Individual concentration-time data were analyzed using WinNonlin (Version 5.3) by non-compartmental analysis (NCA) method.
(§7) The routes of administration were namely PO (gavage) and IV (bolus through tail vein). A total of four SD male rats were used aged between 5-6 weeks. The feeding regimen included 12 h fasting and the feed was provided 2 hrs after the dosage inoculation and water was provided ad libitum. The blood collection schedule for PO was at 0.25, 0.5, 1, 2, 4, 8, 10 and 24 h, and for IV it was at 0.12, 0.25, 0.5, 1, 2, 4, 8 and 24 h. For PO dosage, tween-80 (0.02%) and 0.5% methyl cellulose prepared in milli-Q water were used as vehicles; for IV dosage 10% DMSO and 90% PEG-200 were used as vehicles.

in vivo [3] = settings: male, rat; for half-life: t1/2,ß
Procedure: as §1, §2, §3, §4, §5, §6, §7

in vivo [4] = settings: male, beagle
Procedure: The PO (2 mg/kg) dose solution of micronized LA1 was prepared in 0.1% Tween-80 0.5% (w/v) and methyl cellulose in water.
The objective of the study was to investigate the preclinical pharmacokinetic profile of LA1 (micronized powder) in Beagle dog. To delineate the plasma concentration vs. time curve and characterize the relevant pharmacokinetic parameters to generate data on the PK properties viz., bioavailability, half-life (b1/2), volume of distribution, Cmax, Tmax, AUC and elimination rate constant of LA1 in Beagle dog.
LA1 was a coarse material which was micronized using laboratory scale ball mill. […] The micronized LA1 was recovered, weighed and stored in glass container at room temperature. For intravenous drug administration, LA1 excipient compatibility assay for dosing in dogs were carried out.
In brief, a known amount of LA1 was loaded to a cylindrical capped container made of stainless steel followed by addition of stainless steel balls. The ball mills were rotated on their axis for total of 60 minutes (6 cycles X 10 minutes). The micronized LA1 was recovered, weighed and stored in glass bottle at room temperature.
Test system: Healthy Beagle dog weighing 10-12 kg (age 10 months), males were used for the study. Crossover design was adopted for the experiments wherein 02 dogs were used in the study for oral and intravenous administration. Both the animals were housed stainless steel cage provided with a hopper to hold pellet feed and a separate water hopper. Temperature and humidity was maintained at 22±3° C. and 40-70%, respectively. The illumination was controlled to give a sequence of 12 h light and 12 h dark cycle. All the animals were adapted to the experimental conditions for at least 5 days prior to dosing. All animals were provided with Pedigree™ standard pellet feed, except for 10 to 12 h before treatment and 4 h after the drug administration. Water was provided ad libidum.
Formulation and drug administration: Exactly 90 mg of the test item LA1 (micronized powder) was weighed and transferred to a mortar and briefly triturated with pestle. Small volume of vehicle [0.5% (w/v) Carboxy methyl cellulose with 0.1% Tween-80] in water was then added slowly with continuous trituration until a uniform suspension was obtained. The content was then transferred into the measuring cylinder. The mortar was rinsed till the complete transfer of test item into the measuring cylinder was ensured. The final volume was then made up to 225 mL with vehicle to get a uniform suspension with desired concentration of 0.4 mg/mL. Dosing formulations were given by oral gavage at a dose volume not exceeding 5 mL/kg.
Intravenous drug formulation: Hemolysis assay using dog whole blood was employed to assess the damage of red blood cells for selection of excipient for intravenous dosing. […] Exactly 22.5 mg of the test item (micronized powder) was weighed into a graduated tube. 2.25 mL of DMSO was added drop wise and mixed by vortex. Then, 40.50 mL of Polyethylene glycol 400 (PEG-400) was added in two to three fragments and vortex intermittently. Then 2.25 mL Ethanol was added drop wise and vortex to get clear solution. The formulation was subjected to ultra-sonication for 5 minutes.
Sample collection: Serial method was used for blood sampling. Blood samples were collected as mentioned in the study design section (7). The blood sample (−1.5 mL) was collected from saphenous vein into labeled tubes, containing 2% w/v K2EDTA solution, as an anticoagulant.

adenosine A2A receptor = adenosine A2A receptor (Homo sapiens, UniProt P29274); experiment: Adenosine A2A receptor agonist assay
glucocorticoid receptor = molecular target: T1, glucocorticoid receptor (Homo sapiens, UniProt P04150); experiment: Glucocorticoid receptor agonist assay
T1 sequence (P04150 1-777): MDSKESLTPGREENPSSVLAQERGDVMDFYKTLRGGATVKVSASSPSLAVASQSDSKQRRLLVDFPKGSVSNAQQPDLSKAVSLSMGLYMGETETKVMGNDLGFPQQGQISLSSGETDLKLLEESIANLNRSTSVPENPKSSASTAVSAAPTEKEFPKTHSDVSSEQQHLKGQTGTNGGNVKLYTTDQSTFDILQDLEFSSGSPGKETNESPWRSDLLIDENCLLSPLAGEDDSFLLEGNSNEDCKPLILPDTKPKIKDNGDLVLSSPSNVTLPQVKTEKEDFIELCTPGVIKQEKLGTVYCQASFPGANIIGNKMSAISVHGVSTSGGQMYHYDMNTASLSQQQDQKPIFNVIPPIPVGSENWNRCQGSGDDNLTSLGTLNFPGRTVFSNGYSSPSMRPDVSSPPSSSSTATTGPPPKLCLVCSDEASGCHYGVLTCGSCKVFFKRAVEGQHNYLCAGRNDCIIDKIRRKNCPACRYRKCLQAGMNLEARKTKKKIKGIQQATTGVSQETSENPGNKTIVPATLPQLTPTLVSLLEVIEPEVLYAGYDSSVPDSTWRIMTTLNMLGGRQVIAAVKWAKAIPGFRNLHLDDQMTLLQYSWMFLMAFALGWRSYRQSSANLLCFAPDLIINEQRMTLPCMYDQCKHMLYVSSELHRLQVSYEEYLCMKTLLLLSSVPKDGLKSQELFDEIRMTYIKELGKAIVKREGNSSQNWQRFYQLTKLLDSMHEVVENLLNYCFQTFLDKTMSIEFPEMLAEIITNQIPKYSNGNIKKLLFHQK

[5] = mouse, in vivo, po
From the text: Mice were inoculated with B16F10 tumors as described above. Once the tumor volume reached around 45 mm^3, animals were randomized into various groups with 10 animals in all the groups so that the average tumor volume of each group was similar.
LA1 was combined with a solution containing 5% DMSO, 5% Solutol:ethanol (1:1), 20% Tween20, and 70% N-saline.

leukocytes = settings: mice; cited from earlier work
[6] = rats; cited from earlier work
[7] = male, Sprague Dawley, rat, ip, 2 mg/kg
[8] = male, Sprague-Dawley, rat, ip, 2 mg/kg
[9] = male, Sprague-Dawley, rat, iv, 1 mg/kg
[10] = male, Sprague-Dawley, rat, po, 2 mg/kg

Sequence of adenosine A2A receptor (P29274 whole entry): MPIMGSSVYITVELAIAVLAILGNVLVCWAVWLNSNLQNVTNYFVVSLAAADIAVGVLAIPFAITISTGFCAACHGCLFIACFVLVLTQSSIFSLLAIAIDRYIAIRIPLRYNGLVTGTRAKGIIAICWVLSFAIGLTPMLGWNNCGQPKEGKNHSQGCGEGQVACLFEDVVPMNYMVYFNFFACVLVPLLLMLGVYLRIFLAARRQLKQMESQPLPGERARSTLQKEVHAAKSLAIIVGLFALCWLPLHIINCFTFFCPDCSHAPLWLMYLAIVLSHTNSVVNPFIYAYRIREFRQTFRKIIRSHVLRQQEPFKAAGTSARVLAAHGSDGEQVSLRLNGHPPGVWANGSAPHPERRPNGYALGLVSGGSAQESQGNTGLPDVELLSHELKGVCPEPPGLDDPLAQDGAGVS

O=C(O)c1ccc(-c2ccc(/C=C3\SC(=S)N(Cc4ccccc4)C3=O)o2)cc1 [LA1 choline salt]
growth inhibition of B16-F10 tumors as compared to vehicle control ([1]; 3-100 mg/kg orally): 43-68%
tumor volume ([1]; 3-100 mg/kg, FIG. 24): decreased tumor volume in a dose dependent manner
Rat Cl ([2]; male, Sprague Dawley, iv, 1 mg/kg): 17.6 mL/min/kg
Vss ([2]; male, Sprague Dawley, rat): 0.73 L/kg
MRT [2, 7]: 1.02 h
Rat Cl ([2]; male, Sprague-Dawley): 18 mL/min/kg
Rat Cl ([2]; male, Sprague-Dawley, iv, 1 mg/kg): 17.6 mL/min/kg
% F (absolute IP bioavailability) ([2]; male, Sprague-Dawley, rat): 84%
Vss ([2]; male, Sprague-Dawley, rat): 0.73 L/kg
AUC0-t [2, 8]: 1657 ng·h/mL
AUC0-∞ [2, 8]: 1666 ng·h/mL
MRT [2, 8]: 1.02 h
Tlast [2, 8]: 10.0 h
Tmax [2, 8]: 0.25 h
AUC0-t [2, 9]: 985 ng·h/mL
AUC0-∞ [2, 9]: 993 ng·h/mL
C0 [2, 9]: 1856 ng/mL
MRT [2, 9]: 0.72 h
Tlast [2, 9]: 7.00 h
Vd [2, 9]: 1.78 L/kg
AUC0-t [2, 10]: 808 ng·h/mL
AUC0-∞ [2, 10]: 814 ng·h/mL
Tlast [2, 10]: 10.0 h
bioavailability (in vivo [3]; Sprague-Dawley, F (absolute oral bioavailability)): 41%
MRT (in vivo [3]; Sprague-Dawley, po, 2 mg/kg, MRT): 1.81 h
half-life (in vivo [3]; Sprague-Dawley, po, 2 mg/kg): 1.57 h
Tmax (in vivo [3]; Sprague-Dawley, po, 2 mg/kg): 0.5 h

O=C(O)c1ccc(-c2ccc(/C=C3\SC(=S)N(Cc4ccccc4)C3=O)o2)cc1 [LA1, (Z)-4-(5-((3-benzyl-4-oxo-2-thioxothiazolidin-5-ylidene)methyl)furan-2-yl)benzoic acid]
Dog Cl (in vivo [4]): 2.1 mL/min/kg
Dog F % (absolute oral bioavailability) (in vivo [4]): 50%
AUC (in vivo [4]; dog, po, 2 mg/kg): 6.1 µM·h
Tmax (in vivo [4]; dog, po, 2 mg/kg): 4 h
AUC0-t (in vivo [4]; dog, po, 2 mg/kg, AUC0-12): 2570 ng·h/mL
Cmax (in vivo [4]; dog, po, 2 mg/kg, Cmax (peak concentration)): 685 ng/mL
half-life (in vivo [4]; dog, po, 2 mg/kg, t1/2 (hr), oral half-life): ~2 h
efficacy in adenosine A2A receptor agonist assay (adenosine A2A receptor): shown efficacy
efficacy in glucocorticoid receptor agonist assay (glucocorticoid receptor): shown efficacy
Rat F % ([2]; po, 2 mg/kg): Exposure too low
Vss ([2]; male, Sprague Dawley, rat): 4.19 L/kg
MRT [2, 7]: 3.44 h
Vss ([2]; male, Sprague-Dawley, rat): 4.19 L/kg
AUC0-t [2, 8]: 1481 ng·h/mL
AUC0-∞ [2, 8]: 1499 ng·h/mL
MRT [2, 8]: 3.44 h
Tlast [2, 8]: 20.5 h
C0 [2, 9]: 1317 ng/mL
MRT [2, 9]: 3.38 h
Tlast [2, 9]: 20.0 h
MRT (hr) ([2]; rat, po, 2 mg/kg): Exposure too low
exposure in blood at end of study [5]: below the limit of quantitation
exposure in tumor at end of study [5]: below the limit of quantitation
recruitment of leukocytes during acute peritonitis (leukocytes): reduce recruitment of leukocytes
neointimal thickening upon vascular injury [6]: reduce neointimal thickening
clearance (in vivo [3]; Sprague Dawley, iv, 1 mg/kg, Rat Cl (ml/min/kg)): 19.7 mL/min/kg
bioavailability (in vivo [3]; Sprague-Dawley, % F (absolute IP bioavailability)): 82%
clearance (in vivo [3]; Sprague-Dawley, Rat Cl (ml/min/kg)): 20 mL/min/kg
bioavailability (in vivo [3]; Sprague-Dawley, ip, 2 mg/kg, % F (absolute IP bioavailability)): 81.6%
AUC (in vivo [3]; Sprague-Dawley, ip, 2 mg/kg, AUC in mM*hr): 3.5 µM·h
Tmax (in vivo [3]; Sprague-Dawley, ip, 2 mg/kg): 0.25 h
AUC0-t (in vivo [3]; Sprague-Dawley, iv, 1 mg/kg, AUC0-t): 903 ng·h/mL
AUC(0-inf) (in vivo [3]; Sprague-Dawley, iv, 1 mg/kg, AUC0-∞): 918 ng·h/mL
clearance (in vivo [3]; Sprague-Dawley, iv, 1 mg/kg, CL): 19.7 mL/min/kg
Cmax (in vivo [3]; Sprague-Dawley, iv, 1 mg/kg, Cmax): 952 ng/mL
clearance (in vivo [3]; Sprague-Dawley, iv, 1 mg/kg, Rat Cl (ml/min/kg)): 19.7 mL/min/kg
Vd (in vivo [3]; Sprague-Dawley, iv, 1 mg/kg, Vd): 2.39 L/kg
half-life (in vivo [3]; Sprague-Dawley, iv, 1 mg/kg): 1.16 h
